From article PMC5814754, “Quantitative, Wide-Spectrum Kinase Profiling in Live Cells for Assessing the Effect of Cellular ATP on Target Engagement” (Cell Chemical Biology, 2018)

Experiments:
Experiment in all cases: NanoBRET single-dose fractional occupancy profiling of kinase/Nluc library in live HEK293 cells (Table S1)
Format in all cases: binding
Design in all cases: Occupancy, % Replicate 1 / Occupancy, % Replicate 2: unit of the concentration uncertain
178 full-length kinases [1] = target: 178 full-length kinases (Homo sapiens, UniProt P22455); details: FGFR4, Nluc C, probe 5 at 1 (unit uncertain)
178 full-length kinases [2] = target: 178 full-length kinases (Homo sapiens, UniProt Q96PY6); details: NEK1, Nluc N, probe 5 at 1 (unit uncertain)
178 full-length kinases [3] = target: 178 full-length kinases (Homo sapiens, UniProt Q16539); details: MAPK14, Nluc C, probe 6 at 0.1 (unit uncertain)
178 full-length kinases [4] = target: 178 full-length kinases (Homo sapiens, UniProt P51817); details: PRKX, Nluc C, probe 5 at 1 (unit uncertain)
178 full-length kinases [5] = target: 178 full-length kinases (Homo sapiens, UniProt P36896); details: ACVR1B, Nluc C, probe 5 at 1 (unit uncertain)
178 full-length kinases [6] = target: 178 full-length kinases (Homo sapiens, UniProt Q16832); details: DDR2, Nluc C, probe 6 at 0.1 (unit uncertain)
178 full-length kinases [7] = target: 178 full-length kinases (Homo sapiens, UniProt P19784); details: CSNK2A2, Nluc C, probe 5 at 1 (unit uncertain)
178 full-length kinases [8] = target: 178 full-length kinases (Homo sapiens, UniProt P11309); details: PIM1, Nluc C, probe 5 at 1 (unit uncertain)
178 full-length kinases [9] = target: 178 full-length kinases (Homo sapiens, UniProt P50750); details: CDK9, Nluc N, probe 1 at 0.5 (unit uncertain)
178 full-length kinases [10] = target: 178 full-length kinases (Homo sapiens, UniProt P10721); details: KIT, Nluc C, probe 6 at 0.1 (unit uncertain)
178 full-length kinases [11] = target: 178 full-length kinases (Homo sapiens, UniProt P57059); details: SIK1 (NP_001307572), Nluc orientation N, probe 6 at 0.1 (unit uncertain)
178 full-length kinases [12] = target: 178 full-length kinases (Homo sapiens, UniProt P52333); details: JAK3, Nluc C, probe 5 at 1 (unit uncertain)
178 full-length kinases [13] = target: 178 full-length kinases (Homo sapiens, UniProt Q8IVW4); details: CDKL3, Nluc N, probe 1 at 0.05 (unit uncertain)
178 full-length kinases [14] = target: 178 full-length kinases (Homo sapiens, UniProt O75460); details: ERN1, Nluc C, probe 5 at 1 (unit uncertain)
178 full-length kinases [15] = target: 178 full-length kinases (Homo sapiens, UniProt Q8NG66); details: NEK11, Nluc N, probe 5 at 1 (unit uncertain)
178 full-length kinases [16] = target: 178 full-length kinases (Homo sapiens, UniProt Q13882); details: PTK6, Nluc C, probe 6 at 0.5 (unit uncertain)
178 full-length kinases [17] = target: 178 full-length kinases (Homo sapiens, UniProt O94768); details: STK17B (NP_004217), Nluc orientation C, probe 1 at 1 (unit uncertain)
178 full-length kinases [18] = target: 178 full-length kinases (Homo sapiens, UniProt Q13627); details: DYRK1A, Nluc N, probe 5 at 1 (unit uncertain)
178 full-length kinases [19] = target: 178 full-length kinases (Homo sapiens, UniProt O95835); details: LATS1, Nluc C, probe 5 at 0.5 (unit uncertain)

Sequence of 178 full-length kinases (Homo sapiens, UniProt P57059) (P57059 whole entry): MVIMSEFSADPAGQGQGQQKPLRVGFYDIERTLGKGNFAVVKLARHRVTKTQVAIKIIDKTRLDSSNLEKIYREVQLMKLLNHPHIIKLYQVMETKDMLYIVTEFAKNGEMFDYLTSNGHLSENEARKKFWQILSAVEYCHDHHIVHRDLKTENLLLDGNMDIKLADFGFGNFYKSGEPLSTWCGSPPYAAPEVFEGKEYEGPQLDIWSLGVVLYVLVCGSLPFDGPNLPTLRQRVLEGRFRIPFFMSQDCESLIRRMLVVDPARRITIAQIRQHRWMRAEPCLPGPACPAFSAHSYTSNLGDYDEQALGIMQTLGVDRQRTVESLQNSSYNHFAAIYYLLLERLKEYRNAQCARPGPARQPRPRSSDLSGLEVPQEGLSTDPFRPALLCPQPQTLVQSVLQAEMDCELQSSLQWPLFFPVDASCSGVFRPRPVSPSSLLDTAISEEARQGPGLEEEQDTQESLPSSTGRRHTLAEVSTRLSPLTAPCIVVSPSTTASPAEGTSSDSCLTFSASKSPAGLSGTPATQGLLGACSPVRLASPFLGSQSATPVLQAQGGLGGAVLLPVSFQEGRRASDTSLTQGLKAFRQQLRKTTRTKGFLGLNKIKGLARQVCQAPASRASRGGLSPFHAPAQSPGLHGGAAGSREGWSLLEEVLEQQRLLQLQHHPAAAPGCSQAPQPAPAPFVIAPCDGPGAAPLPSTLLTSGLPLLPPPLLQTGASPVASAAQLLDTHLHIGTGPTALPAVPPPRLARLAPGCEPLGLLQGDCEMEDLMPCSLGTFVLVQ
Sequence of 178 full-length kinases (Homo sapiens, UniProt P10721) (P10721 26-976): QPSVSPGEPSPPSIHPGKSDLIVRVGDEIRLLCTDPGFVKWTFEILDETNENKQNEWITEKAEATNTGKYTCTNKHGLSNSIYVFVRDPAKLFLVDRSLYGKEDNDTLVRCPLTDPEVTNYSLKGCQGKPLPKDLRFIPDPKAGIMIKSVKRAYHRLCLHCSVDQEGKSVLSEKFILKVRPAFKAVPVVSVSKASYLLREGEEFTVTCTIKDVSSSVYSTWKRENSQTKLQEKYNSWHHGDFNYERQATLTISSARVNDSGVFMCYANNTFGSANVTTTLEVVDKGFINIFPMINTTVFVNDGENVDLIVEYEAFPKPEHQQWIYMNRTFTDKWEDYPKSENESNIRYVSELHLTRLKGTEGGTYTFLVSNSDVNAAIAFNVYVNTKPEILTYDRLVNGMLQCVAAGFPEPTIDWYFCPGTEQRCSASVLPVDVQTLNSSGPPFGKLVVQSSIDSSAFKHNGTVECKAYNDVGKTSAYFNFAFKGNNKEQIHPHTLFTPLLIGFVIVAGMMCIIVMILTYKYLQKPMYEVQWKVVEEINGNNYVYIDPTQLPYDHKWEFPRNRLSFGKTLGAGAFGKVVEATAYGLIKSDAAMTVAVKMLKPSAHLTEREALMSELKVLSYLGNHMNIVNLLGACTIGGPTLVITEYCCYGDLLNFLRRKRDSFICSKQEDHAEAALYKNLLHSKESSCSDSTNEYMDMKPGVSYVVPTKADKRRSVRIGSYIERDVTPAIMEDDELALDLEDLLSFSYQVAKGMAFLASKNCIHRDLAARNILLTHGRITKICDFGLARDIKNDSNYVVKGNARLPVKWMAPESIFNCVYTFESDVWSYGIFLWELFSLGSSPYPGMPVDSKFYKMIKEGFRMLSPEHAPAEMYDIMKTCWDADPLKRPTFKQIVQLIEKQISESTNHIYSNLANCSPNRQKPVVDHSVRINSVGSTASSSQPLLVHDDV
Sequence of 178 full-length kinases (Homo sapiens, UniProt P51817) (P51817 whole entry): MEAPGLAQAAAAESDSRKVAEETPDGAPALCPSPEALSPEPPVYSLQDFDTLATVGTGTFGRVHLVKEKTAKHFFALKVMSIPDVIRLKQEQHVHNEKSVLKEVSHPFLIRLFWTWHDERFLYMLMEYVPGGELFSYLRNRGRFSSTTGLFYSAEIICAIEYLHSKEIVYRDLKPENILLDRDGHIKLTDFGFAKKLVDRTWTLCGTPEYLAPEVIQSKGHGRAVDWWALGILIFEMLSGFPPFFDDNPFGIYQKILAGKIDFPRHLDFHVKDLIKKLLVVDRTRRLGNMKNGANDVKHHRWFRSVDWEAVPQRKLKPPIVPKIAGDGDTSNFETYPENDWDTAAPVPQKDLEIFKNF
Sequence of 178 full-length kinases (Homo sapiens, UniProt Q16539) (Q16539 whole entry): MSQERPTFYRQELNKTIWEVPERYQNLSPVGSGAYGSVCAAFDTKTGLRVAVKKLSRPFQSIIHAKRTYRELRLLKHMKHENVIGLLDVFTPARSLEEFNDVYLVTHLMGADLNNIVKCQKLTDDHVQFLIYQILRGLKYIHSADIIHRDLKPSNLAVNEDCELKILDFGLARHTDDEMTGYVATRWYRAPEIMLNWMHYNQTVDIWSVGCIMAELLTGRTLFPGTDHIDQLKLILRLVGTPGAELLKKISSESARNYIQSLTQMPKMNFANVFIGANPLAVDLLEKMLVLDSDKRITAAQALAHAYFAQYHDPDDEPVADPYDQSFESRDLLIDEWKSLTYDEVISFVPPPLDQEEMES
Sequence of 178 full-length kinases (Homo sapiens, UniProt P50750) (P50750 whole entry): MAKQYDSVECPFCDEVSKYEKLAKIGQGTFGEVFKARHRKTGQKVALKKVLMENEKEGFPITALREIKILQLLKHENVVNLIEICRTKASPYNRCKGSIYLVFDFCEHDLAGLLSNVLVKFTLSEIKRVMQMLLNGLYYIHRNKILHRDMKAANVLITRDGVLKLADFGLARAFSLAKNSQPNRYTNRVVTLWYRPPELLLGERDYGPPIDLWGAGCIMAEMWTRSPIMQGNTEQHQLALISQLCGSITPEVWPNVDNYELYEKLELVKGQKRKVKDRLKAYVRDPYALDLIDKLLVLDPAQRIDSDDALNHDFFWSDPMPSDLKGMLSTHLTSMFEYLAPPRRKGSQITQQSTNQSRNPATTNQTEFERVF
Sequence of 178 full-length kinases (Homo sapiens, UniProt O75460) (O75460 19-977): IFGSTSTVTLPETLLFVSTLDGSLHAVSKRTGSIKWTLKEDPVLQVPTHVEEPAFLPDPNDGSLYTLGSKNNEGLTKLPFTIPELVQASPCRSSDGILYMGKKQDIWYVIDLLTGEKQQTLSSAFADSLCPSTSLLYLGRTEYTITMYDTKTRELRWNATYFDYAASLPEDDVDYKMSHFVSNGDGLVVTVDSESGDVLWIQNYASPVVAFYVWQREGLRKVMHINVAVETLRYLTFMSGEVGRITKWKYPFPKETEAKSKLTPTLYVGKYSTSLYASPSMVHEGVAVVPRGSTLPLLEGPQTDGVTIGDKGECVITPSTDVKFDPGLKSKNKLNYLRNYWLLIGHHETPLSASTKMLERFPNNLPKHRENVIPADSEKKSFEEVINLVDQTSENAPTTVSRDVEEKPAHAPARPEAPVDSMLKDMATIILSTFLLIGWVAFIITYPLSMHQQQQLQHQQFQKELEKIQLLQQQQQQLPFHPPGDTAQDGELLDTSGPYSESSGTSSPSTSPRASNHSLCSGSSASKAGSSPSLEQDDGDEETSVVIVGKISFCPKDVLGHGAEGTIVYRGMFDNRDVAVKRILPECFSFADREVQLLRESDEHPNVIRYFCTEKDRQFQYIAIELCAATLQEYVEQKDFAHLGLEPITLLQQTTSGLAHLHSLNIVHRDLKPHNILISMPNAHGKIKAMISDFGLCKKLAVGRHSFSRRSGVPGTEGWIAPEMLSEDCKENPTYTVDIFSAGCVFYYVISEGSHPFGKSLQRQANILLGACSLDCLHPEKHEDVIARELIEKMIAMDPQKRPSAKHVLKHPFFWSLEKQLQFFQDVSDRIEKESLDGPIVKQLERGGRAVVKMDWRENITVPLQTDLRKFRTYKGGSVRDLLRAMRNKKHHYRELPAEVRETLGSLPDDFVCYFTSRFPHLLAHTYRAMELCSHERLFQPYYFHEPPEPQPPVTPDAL
Sequence of 178 full-length kinases (Homo sapiens, UniProt O94768) (O94768 whole entry): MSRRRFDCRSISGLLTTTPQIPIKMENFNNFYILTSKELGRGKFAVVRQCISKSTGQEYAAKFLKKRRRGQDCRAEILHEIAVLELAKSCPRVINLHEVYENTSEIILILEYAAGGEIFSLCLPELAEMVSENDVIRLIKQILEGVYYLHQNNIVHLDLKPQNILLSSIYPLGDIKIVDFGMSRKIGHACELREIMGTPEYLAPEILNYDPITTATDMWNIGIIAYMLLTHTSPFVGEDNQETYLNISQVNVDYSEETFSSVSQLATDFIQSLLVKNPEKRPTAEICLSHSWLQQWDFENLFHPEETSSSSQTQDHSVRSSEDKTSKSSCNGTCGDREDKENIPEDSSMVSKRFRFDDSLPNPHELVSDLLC
Sequence of 178 full-length kinases (Homo sapiens, UniProt P19784) (P19784 whole entry): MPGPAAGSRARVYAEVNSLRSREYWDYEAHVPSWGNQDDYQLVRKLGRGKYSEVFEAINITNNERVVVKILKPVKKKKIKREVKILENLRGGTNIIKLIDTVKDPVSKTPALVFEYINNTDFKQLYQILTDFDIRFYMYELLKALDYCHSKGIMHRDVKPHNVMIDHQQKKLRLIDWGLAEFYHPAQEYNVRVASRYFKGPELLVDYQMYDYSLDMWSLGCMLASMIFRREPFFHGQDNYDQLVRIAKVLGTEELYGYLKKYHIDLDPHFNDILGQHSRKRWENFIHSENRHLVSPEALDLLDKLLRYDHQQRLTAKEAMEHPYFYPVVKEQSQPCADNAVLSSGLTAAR
Sequence of 178 full-length kinases (Homo sapiens, UniProt Q13882) (Q13882 whole entry): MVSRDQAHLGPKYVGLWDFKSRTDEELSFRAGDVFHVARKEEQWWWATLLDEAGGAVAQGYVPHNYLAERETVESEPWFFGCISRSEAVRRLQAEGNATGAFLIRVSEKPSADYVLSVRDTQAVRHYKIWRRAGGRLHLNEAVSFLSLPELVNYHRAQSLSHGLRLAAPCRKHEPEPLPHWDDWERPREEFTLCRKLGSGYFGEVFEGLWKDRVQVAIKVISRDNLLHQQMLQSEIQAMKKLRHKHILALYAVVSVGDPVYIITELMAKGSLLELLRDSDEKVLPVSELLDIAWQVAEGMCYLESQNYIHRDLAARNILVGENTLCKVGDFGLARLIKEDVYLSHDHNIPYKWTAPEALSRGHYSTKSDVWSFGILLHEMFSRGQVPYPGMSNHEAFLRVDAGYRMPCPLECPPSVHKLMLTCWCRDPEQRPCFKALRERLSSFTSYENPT

C[C@@H](Oc1cc(-c2cnn(C3CCNCC3)c2)cnc1N)c1c(Cl)ccc(F)c1Cl [Crizotinib]
No Binding: Occupancy, % Replicate 1 (178 full-length kinases [1]) | Occupancy, % Replicate 2 (178 full-length kinases [2]) | Occupancy, % Replicate 1 (178 full-length kinases [3]) | Occupancy, % Replicate 2 (178 full-length kinases [3]) | Occupancy, % Replicate 1 (178 full-length kinases [4]) | Occupancy, % Replicate 2 (178 full-length kinases [4]) | Occupancy, % Replicate 2 (178 full-length kinases [5]) | Occupancy, % Replicate 1 (178 full-length kinases [6]) | Occupancy, % Replicate 1 (178 full-length kinases [7]) | Occupancy, % Replicate 2 (178 full-length kinases [7]) | Occupancy, % Replicate 1 (178 full-length kinases [8]) | Occupancy, % Replicate 1 (178 full-length kinases [9]) | Occupancy, % Replicate 2 (178 full-length kinases [9]) | Occupancy, % Replicate 1 (178 full-length kinases [10]) | Occupancy, % Replicate 2 (178 full-length kinases [10]) | Occupancy, % Replicate 1 (178 full-length kinases [11]; replicate 1) | Occupancy, % Replicate 2 (178 full-length kinases [11]; replicate 2) | Occupancy, % Replicate 2 (178 full-length kinases [12]) | Occupancy, % Replicate 1 (178 full-length kinases [13]) | Occupancy, % Replicate 2 (178 full-length kinases [13]) | Occupancy, % Replicate 1 (178 full-length kinases [14]) | Occupancy, % Replicate 2 (178 full-length kinases [14]) | Occupancy, % Replicate 2 (178 full-length kinases [15]) | Occupancy, % Replicate 2 (178 full-length kinases [16]) | Occupancy, % Replicate 1 (178 full-length kinases [17]; replicate 1) | Occupancy, % Replicate 2 (178 full-length kinases [17]; replicate 2) | Occupancy, % Replicate 1 (178 full-length kinases [18]) | Occupancy, % Replicate 2 (178 full-length kinases [18]) | Occupancy, % Replicate 1 (178 full-length kinases [19])
